Reference: patent US7091025B2, “Malathion carboxylesterase” (priority 1995, dated 2006)
Like-named read-outs stand apart in the source and are kept apart here.

Assays:
[1] = tested on: whole fly homogenates of L. cuprina strains; experiment: Chlorfenvinphos hydrolysis by whole fly homogenates; format: biochemical
Procedure: Enzyme samples were diluted in 0.1M imidazole-HCl buffer pH 7.0 (“imidazole buffer”) to a final volume of 50 μl. Reactions were started by the addition 0.5 μl of (^14C-ethyl)-chlorfenvinphos (CVP, 306.5 MBq/mmole, Internationale Isotope Munchen) from a 7.5 mM stock solution in ethanol. The reaction was incubated at 30° C. and stopped by the addition of 300 μl dichloromethane and 150 μl of water followed by vigorous vortex mixing. The reactions were centrifuged to separate phases and 150 μl of the upper, aqueous phase was taken for scintillation counting to determine the amount of ^14C-diethylphosphate produced by hydrolysis of CVP. Incubations with boiled enzyme were also performed to control for non-enzymic hydrolysis of CVP.
Whole fly homogenates of malathion resistant (strains RM-8, 60NE 1.1, 4.2, Beverly 6.2, Hampton Hill 6.1, Hampton Hill 6.2, Woodside 5.2, Rop Rmal 1, M22.2 6.3, M27.1 4.1), diazinon resistant (Gunning 107, Inverell 22, Q4, RM2.6, Llandillo 103, Sunbury 5.2) and susceptible (LBB 101, Llandillo 104, LS2) strains of L. cuprina were tested for esterase-mediated hydrolysis of CVP, a general OP (ie not a malathion-type OP). All 10 malathion resistant strains had greater CVP hydrolytic activities (1.5–3.0 pmol/min/mg) than the 3 susceptible strains (0.5–1.0 pmol/min/mg, but less activity than the 6 diazinon resistant strains (8.2–30.0 pmol/min/mg).

adult female L. cuprina = format: in vivo; conditions: for RF (Dz/para R): ratio of the LD50 of Llandillo 103 with the LD50 of LS2 / RF (Mal R): ratio of the LD50 of Woodside 5.2 with the LD50 of LS2: L. cuprina, NS = not significantly different from unity; for LD50 LS2 (OP Susceptible), with 95% confidence limits: strain LS2, topical in dioctylphthalate; for LD50 LS2 (OP Susceptible), with 95% confidence limits / LD50 Llandillo 103 (Dz/para Resistant), with 95% confidence limits / LD50 Woodside 5.2 (Mal Resistant), with 95% confidence limits: mortality at 24 hours; for LD50 Llandillo 103 (Dz/para Resistant), with 95% confidence limits: strain Llandillo 103, topical; for LD50 Woodside 5.2 (Mal Resistant), with 95% confidence limits: strain Woodside 5.2, topical
Text: (§1) The following organophosphorus compounds were used: diazinon (O,O-diethyl O-2-isopropyl-6-methylpyrimidin-4-yl phosphorothioate, 91%, Mallinckrodt), parathion-methyl (O,O-dimethyl O-4-nitrophenyl phosphorothioate, 97.0%, Bayer), parathion (O,O-diethyl O-4-nitrophenyl phosphorothioate, 99%, Pestanal grade, Riedel-de-Haën), fenthion (O,O-dimethyl O-[3-methyl-4-(methylthio)phenyl]phosphorothioate, 98.8%, Bayer), fenthion-ethyl (O,O-diethyl O-[3-methyl-4-(methylthio)phenyl] phosphorothioate, a gift from Dr. G. Levot), dichlorvos (2,2-dichlorovinyl dimethyl phosphate, 99%, Chem Service), diethyl-dichlorvos (2,2-dichlorovinyl diethyl phosphate, a gift from Dr. J. Desmarchelier), di-isopropyl-dichlorvos (2,2-dichlorovinyl di-isopropyl phosphate, a gift from Dr. J. Desmarchelier), malathion (S-1,2-bis(ethoxycarbonyl)ethyl O,O-dimethyl phosphorodithioate, technical grade, Nufarm), isopropyl malathion (S-1,2-bis(ethoxycarbonyl)ethyl O,O-di-isopropyl phosphorodithioate, a gift from Dr. J. Desmarchelier).
(§2) The toxicity of OPs in adult female L. cuprina was determined 3 or 4 days post-eclosion by application of OPs to the scutellum in 0.7 μl dioctylphthalate (Busvine, J. R., Bell, J. D. and Guneidy, A. M., Bulletin of Entomological Research 54: 589, 1963;; Townsend, M. G. and Busvine, J. R., Entomology Experimental and Applied 12: 243, 1969). Each OP was applied to at least 20 flies at each of at least 5 different concentrations, spanning the dose causing 50% mortality (LD50). Control groups were treated with solvent but no OP. Mortality was determined 24 hours later. Data were fitted to the probit curve using the Probit Or LOgit (POLO-PC) computer program (LeOra Software, 1987).

M. domestica = conditions: cited from earlier work; for Resistance factor of M. domestica (in parentheses), Dz/para resistance type / Resistance factor of M. domestica (in parentheses), malathion resistance type: Bell and Busvine 1967, Townsend and Busvine 1969
[2] = tested on: adult L. cuprina, Woodside 5.2 strain (Mal Resistant); format: in vivo, Lucilia cuprina
Text: as §1, §2
LD50s of 10 OPs were determined for the Woodside 5.2 strain (homozygous for a malathion resistance allele of LcαE7) and the Llandillo 103 strain (homozygous for a parathion/diazinon resistance allele of LcαE7). LD50s were also determined for the OP susceptible LS2 strain in order to calculate resistance factors (Table 8).

| SMILES | CVP hydrolytic activity ([1]; whole fly homogenates of 3 susceptible strains) | CVP hydrolytic activity ([1]; whole fly homogenates of 6 diazinon resistant strains) | CVP hydrolytic activity ([1]; whole fly homogenates of 10 malathion resistant strains) | RF (Dz/para R): ratio of the LD50 of Llandillo 103 with the LD50 of LS2 (adult female L. cuprina) | RF (Mal R): ratio of the LD50 of Woodside 5.2 with the LD50 of LS2 (adult female L. cuprina) | LD50 LS2 (OP Susceptible), with 95% confidence limits (adult female L. cuprina) | LD50 Llandillo 103 (Dz/para Resistant), with 95% confidence limits (adult female L. cuprina) | LD50 Woodside 5.2 (Mal Resistant), with 95% confidence limits (adult female L. cuprina) | Resistance factor of M. domestica (in parentheses), Dz/para resistance type (M. domestica) | Resistance factor of M. domestica (in parentheses), malathion resistance type (M. domestica) | resistance factor towards dimethyl OP vs its diethyl analogue ([2]; Woodside 5.2) | fold greater doses survived by flies with malathion resistance alleles of αE7 (adult female L. cuprina; in vivo) | resistance to malathion of malathion resistant M. domestica strains (M. domestica; literature) | resistance factor towards dimethyl OP vs its diethyl analogue ([2]; in vivo) |
| --- | --- | --- | --- | --- | --- | --- | --- | --- | --- | --- | --- | --- | --- | --- |
| CCOP(=O)(OCC)O/C(=C\Cl)c1ccc(Cl)cc1Cl [CVP, chlorfenvinphos] | 0.5 to 1.0 pmol/min/mg | 8.2 to 30.0 pmol/min/mg | 1.5 to 3.0 pmol/min/mg |  |  |  |  |  |  |  |  |  |  |  |
| COP(=O)(OC)OC=C(Cl)Cl [Dichlorvos, 2,2-dichlorovinyl dimethyl phosphate] |  |  |  | 4 | 7 | 41 (35–51), ng/fly | 150 (95–190), ng/fly | 270 (210–340) ng/fly | 3 | 6 | about two- to five-fold greater resistance factors |  |  |  |
| CCOC(=O)CC(SP(=S)(OC)OC)C(=O)OCC (stereo not shown) [Malathion, S-1,2-bis(ethoxycarbonyl)ethyl O,O-dimethyl phosphorodithioate] |  |  |  |  | > 130 | 550 (480–610), ng/fly | 490 (360–600) ng/fly | 4 ng/fly | 2 | 157 |  | more than 100 fold | > 100 fold |  |
| COP(=S)(OC)Oc1ccc(SC)c(C)c1 [Fenthion, O,O-dimethyl O-[3-methyl-4-(methylthio)phenyl]phosphorothioate] |  |  |  | 3 (3) | 5 | 61 (42–87), ng/fly | 210 (180–240) ng/fly | 320 (210–490) ng/fly | 3 (3) | 7 |  |  |  | about two- to five-fold greater resistance factors |
| CCOC(=O)CC(SP(=S)(OC(C)C)OC(C)C)C(=O)OCC (stereo not shown) [Isopropyl Malathion, S-1,2-bis(ethoxycarbonyl)ethyl O,O-di-isopropyl phosphorodithioate] |  |  |  |  | 1.8 | 3600 (2700–4900), ng/fly | 4900 (3700–6200), ng/fly | 6400 (5900–7100), ng/fly |  | 4 |  |  |  |  |
| CC(C)OP(=O)(OC=C(Cl)Cl)OC(C)C [Isopropyl Dichlorvos, 2,2-dichlorovinyl di-isopropyl phosphate] |  |  |  |  | 3 | 3500 (2200–4800), ng/fly | 4600 (3400–5900) ng/fly | 10200 (8800–12000) ng/fly |  |  |  |  |  |  |
| CCOP(=S)(OCC)Oc1cc(C)nc(C(C)C)n1 [Diazinon, O,O-diethyl O-2-isopropyl-6-methylpyrimidin-4-yl phosphorothioate] |  |  |  | 10 | 5 | 57 (40–79), ng/fly | 550 (490–630), ng/fly | 270 (240–300), ng/fly | 20 | 2 |  |  |  |  |
